From patent publication US8318504B2, “MRP2 efflux pathway prognostic method” (priority 2009, dated 2012)

Target: T1, ABCG2 (Homo sapiens, UniProt Q9UNQ0)
T1 construct: made in house; host or cells: Sf21 insect cells, baculovirus (gift from Borst); plasma membrane vesicles
T1 sequence (Q9UNQ0 1-655): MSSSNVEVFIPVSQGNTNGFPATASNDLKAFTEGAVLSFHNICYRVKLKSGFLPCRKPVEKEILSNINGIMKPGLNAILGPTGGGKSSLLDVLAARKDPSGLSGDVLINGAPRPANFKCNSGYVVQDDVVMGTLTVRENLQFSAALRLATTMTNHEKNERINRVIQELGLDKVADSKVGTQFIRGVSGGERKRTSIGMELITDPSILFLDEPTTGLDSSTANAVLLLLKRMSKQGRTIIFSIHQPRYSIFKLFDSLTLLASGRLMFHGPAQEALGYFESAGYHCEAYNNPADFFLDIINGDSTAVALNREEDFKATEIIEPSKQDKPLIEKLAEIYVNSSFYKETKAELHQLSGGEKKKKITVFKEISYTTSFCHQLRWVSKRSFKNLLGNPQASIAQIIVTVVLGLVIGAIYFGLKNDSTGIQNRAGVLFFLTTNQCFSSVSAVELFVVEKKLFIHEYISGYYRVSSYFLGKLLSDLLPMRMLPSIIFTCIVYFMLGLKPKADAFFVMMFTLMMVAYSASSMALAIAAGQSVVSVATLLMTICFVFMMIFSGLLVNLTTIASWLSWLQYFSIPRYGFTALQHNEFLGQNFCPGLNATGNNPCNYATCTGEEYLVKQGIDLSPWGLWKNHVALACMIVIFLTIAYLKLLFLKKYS
Assay: ATP-dependent transport of CLF into Sf21 membrane vesicles containing ABCG2
Assay type: biochemical
Conditions: compared with control vesicles
Description: The production of recombinant baculovirus was as described by de Waart et al. [Liver Int 2006 April; 26(3):362-368]. ABCC3 and ABCG2-recombinant baculovirus were a kind gift from Borst [Breedveld P. et al., Cancer Res 2004 Aug. 15; 64(16):5804-5811 and Borst P. et al., J Biol Chem 2001 Dec. 7; 276(49):46400-46407.]. ABCB11-recombinant baculovirus was a kind gift from Thompson [Thompson R J et al., Gastroenterology 2002 November; 123(5):1649-1658]. Sf21 cells grown at 27° C. were infected with ABCB11, ABCC2, ABCC3 and ABCG2-cDNA containing baculovirus. Cells were harvested at 2-4 days after infection. Membrane vesicle preparation was as described by de Waart et al. [Liver Int 2006 April; 26(3):362-368].
Transport studies with membrane vesicles were performed using the rapid filtration technique as described by Heijn M et al. [Am J Physiol 1992 January; 262(1 Pt 1):C104-C110]. Radiolabel was measured with a scintillation counter. When CLF was used as a probe, filters were placed in a glass tube, 0.1% Triton-X-100 was added and the tubes vortexed. Samples were pipetted in 96-well plates (Kartell, Noviglio, Italy) and the amount CLF quantitated by measurement of fluorescence at λexe 485 nm and λcm 520 nm using a NovoStar (BMG-labtech, Offenburg, Germany).

## CC(CCC(=O)NC(CCCCNC(=S)Nc1ccc(-c2c3ccc(=O)cc-3oc3cc(O)ccc23)c(C(=O)O)c1)C(=O)O)C1CCC2C3C(O)CC4CC(O)CCC4(C)C3CC(O)C12C (stereo not shown) [CLF, cholyl lysyl fluorescein]
  ATP-dependent transport of CLF in ABCG2 containing membrane vesicles: not higher than in control vesicles
